Laboratory results published in paper PMC4774911, “Biochemical Screening of Five Protein Kinases from Plasmodium falciparum against 14,000 Cell-Active Compounds” (PLoS ONE, 2016).
Where “and” joins values, the source holds several entries; their conditions need not be identical. Identical values can stand only once.

Assays:
Assay in all cases: biochemical
Design in all cases: endogenous in cells; host or cells: K562 cell extract; species or system K562 (extract); replicate k of n = 2 (each experiment ID is one independent experiment; two experiment IDs per compound)
Details in all cases: read-out: KDapp
MAPKAPK5 = biological target: T1, MAPKAPK5 (Homo sapiens, UniProt Q8IW41)
T1 sequence (Q8IW41 1-473): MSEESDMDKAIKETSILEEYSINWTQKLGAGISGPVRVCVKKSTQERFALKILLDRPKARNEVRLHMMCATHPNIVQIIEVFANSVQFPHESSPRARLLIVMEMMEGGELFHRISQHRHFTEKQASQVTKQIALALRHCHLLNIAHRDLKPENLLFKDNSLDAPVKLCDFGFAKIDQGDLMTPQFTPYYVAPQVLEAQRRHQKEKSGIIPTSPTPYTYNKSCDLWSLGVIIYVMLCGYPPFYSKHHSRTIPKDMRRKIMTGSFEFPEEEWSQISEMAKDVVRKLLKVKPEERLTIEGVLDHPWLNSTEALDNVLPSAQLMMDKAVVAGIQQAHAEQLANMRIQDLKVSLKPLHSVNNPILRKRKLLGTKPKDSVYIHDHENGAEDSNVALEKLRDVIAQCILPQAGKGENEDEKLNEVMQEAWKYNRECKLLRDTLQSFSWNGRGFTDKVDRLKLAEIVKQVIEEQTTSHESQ

CAMK2G = CAMK2G (Homo sapiens, UniProt Q13555)
Chain of CAMK2G (Q13555 whole entry): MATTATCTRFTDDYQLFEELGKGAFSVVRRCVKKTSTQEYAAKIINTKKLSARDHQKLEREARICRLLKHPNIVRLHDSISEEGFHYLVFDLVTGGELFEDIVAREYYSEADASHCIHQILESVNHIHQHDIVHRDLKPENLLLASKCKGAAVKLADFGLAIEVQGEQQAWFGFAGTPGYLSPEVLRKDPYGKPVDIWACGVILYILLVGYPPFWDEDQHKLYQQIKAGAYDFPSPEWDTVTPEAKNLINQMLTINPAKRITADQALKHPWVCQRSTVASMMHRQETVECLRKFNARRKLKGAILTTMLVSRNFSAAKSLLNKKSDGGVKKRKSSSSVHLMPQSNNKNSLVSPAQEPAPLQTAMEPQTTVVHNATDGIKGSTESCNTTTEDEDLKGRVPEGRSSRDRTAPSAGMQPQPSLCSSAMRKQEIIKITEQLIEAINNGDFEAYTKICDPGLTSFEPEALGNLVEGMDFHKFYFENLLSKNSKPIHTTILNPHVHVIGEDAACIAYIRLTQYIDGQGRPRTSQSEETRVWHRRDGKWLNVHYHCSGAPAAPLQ

CDK5 = CDK5 (Homo sapiens, UniProt Q00535)
Chain of CDK5 (Q00535 whole entry): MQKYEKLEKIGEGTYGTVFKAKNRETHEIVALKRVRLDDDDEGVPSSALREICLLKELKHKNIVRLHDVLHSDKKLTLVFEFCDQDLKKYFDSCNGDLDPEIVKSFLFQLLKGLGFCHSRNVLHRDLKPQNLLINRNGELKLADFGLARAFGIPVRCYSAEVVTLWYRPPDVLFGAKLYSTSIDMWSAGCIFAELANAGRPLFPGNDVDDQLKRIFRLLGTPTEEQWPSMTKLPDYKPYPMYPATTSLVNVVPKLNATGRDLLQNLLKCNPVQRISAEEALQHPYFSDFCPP

ERN1 = ERN1 (Homo sapiens, UniProt O75460)
Chain of ERN1 (O75460 whole entry): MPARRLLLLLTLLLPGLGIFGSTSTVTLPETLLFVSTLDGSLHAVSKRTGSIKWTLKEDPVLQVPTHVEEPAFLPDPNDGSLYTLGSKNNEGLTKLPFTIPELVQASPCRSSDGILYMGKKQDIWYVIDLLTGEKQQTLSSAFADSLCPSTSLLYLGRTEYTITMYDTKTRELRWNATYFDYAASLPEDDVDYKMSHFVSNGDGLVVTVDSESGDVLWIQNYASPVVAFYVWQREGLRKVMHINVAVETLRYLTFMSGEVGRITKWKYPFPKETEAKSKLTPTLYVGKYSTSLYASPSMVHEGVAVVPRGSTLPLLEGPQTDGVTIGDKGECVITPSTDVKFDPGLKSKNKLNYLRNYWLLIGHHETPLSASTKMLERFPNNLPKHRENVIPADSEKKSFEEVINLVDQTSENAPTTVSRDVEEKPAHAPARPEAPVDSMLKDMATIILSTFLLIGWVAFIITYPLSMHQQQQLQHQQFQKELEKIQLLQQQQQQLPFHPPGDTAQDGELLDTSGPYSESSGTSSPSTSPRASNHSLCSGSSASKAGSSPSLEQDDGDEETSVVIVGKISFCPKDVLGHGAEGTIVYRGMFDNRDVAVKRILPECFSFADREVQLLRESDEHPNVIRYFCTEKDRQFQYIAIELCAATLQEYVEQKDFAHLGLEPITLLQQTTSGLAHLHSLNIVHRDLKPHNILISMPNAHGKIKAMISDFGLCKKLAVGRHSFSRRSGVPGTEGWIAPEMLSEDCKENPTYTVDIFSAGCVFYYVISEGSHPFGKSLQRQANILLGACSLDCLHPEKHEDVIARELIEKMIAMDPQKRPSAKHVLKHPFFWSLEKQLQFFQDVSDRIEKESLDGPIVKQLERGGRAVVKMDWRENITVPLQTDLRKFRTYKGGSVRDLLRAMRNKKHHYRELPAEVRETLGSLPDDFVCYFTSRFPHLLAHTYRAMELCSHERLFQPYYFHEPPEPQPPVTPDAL

IRAK4 = biological target: T2, IRAK4 (Homo sapiens, UniProt Q9NWZ3)
T2 sequence (Q9NWZ3 1-460): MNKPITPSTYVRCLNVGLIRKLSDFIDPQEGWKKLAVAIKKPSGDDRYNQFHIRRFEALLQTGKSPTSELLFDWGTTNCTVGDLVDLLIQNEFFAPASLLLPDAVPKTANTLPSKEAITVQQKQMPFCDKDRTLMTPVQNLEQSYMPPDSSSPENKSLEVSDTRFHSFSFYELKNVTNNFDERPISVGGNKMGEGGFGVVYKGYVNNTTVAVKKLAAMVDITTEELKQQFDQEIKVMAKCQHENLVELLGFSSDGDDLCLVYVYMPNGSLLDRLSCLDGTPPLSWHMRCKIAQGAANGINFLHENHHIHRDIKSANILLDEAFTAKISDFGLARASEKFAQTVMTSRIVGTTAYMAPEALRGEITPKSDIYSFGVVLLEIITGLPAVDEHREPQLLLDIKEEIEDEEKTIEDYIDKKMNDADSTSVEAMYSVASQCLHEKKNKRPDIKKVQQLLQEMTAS

LIMK1 = LIMK1 (Homo sapiens, UniProt P53667)
Chain of LIMK1 (P53667 whole entry): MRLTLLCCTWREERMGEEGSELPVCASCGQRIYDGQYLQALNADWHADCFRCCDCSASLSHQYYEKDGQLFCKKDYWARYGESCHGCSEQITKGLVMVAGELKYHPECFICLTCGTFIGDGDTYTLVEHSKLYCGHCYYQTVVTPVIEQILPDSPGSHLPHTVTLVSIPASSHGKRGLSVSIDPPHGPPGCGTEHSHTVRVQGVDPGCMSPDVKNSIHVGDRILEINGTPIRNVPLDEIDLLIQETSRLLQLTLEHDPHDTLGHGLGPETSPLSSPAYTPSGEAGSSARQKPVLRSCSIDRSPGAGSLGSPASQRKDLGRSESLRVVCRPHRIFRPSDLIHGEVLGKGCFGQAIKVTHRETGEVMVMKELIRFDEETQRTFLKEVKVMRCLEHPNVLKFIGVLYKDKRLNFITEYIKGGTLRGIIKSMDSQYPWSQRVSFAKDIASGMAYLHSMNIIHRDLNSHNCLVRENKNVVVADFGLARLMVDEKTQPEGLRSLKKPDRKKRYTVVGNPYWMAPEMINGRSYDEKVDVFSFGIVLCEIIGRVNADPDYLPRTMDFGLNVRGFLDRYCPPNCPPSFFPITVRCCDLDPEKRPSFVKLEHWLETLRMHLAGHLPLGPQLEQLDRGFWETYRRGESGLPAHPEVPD

MASTL = biological target: T3, MASTL (Homo sapiens, UniProt Q96GX5)
T3 sequence (Q96GX5 1-879): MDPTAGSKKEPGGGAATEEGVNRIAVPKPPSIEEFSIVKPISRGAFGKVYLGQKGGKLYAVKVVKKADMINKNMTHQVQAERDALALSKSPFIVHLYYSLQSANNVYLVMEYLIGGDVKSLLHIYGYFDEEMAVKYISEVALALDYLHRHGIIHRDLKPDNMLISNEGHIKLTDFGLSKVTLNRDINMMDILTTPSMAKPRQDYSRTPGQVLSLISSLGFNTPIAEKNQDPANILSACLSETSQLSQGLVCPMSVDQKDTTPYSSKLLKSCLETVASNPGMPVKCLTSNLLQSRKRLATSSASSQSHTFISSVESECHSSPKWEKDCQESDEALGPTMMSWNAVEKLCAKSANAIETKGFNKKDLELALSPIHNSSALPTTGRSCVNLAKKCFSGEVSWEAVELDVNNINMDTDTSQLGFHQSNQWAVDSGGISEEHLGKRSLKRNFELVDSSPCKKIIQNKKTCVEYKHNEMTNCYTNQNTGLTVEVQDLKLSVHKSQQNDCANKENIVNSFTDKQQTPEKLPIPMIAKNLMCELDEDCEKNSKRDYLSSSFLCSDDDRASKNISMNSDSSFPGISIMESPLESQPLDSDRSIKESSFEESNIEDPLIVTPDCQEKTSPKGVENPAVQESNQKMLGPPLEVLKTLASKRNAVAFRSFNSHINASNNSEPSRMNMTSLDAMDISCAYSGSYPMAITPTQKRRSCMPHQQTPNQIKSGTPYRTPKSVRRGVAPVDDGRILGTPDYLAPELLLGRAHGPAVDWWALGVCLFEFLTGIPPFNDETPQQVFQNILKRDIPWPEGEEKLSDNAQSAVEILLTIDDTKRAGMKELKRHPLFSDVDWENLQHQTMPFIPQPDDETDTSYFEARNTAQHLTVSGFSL

PRKACA = PRKACA (Homo sapiens, UniProt P17612)

Compound | Kd (MAPKAPK5) | Kd (CAMK2G) | Kd (CDK5) | Kd (ERN1) | Kd (IRAK4) | Kd (LIMK1) | Kd (MASTL) | Kd (PRKACA)
CN(C)CC(O)COc1ccc(Nc2ncc([N+](=O)[O-])c(Nc3ccccc3O)n2)cc1.O=C(O)C(F)(F)F (centres unmarked) [TCMDC-141399] | 292 nM | – | – | – | – | – | – | –
CN1CCN(c2ccc(Nc3ncc(C#N)c(Nc4ccccc4C(N)=O)n3)cc2)CC1.Cl [TCMDC-134116] | – | 340 nM and 294 nM | 40.5 nM and 66.5 nM | 127 nM | 96.4 nM | 121 nM | 274 nM and 597 nM | 1330 nM
